One test has as its system ΔNTR mutant. Nature of the test: Binding of biotinylated peptides to captured ΔNTR mutant. The following applies: peptide 1 μM; triplicate wells (Fig 2E). Also noted: species or system human. The procedure: Figure 2 NNKC9/41 interacts with the NTR of pro-FSAP: (A) To determine peptide binding to pro-FSAP, wells were coated with 2 μg/mL pro-FSAP and biotinylated NNKC9/41 and NNK11/189 and their respective scrambled controls were added in different concentration (0–5 μM). Peroxidase-labeled streptavidin was used to detect peptide binding. (B) Same procedure as in (A) except that different proteins were immobilized and biotinylated NNKC9/41 (0–30 μM) was added and its binding was measured. (C) Schematic structure of pro-FSAP with the heavy chain consisting of an NTR, three EGF domains, and a kringle domain, followed by the light chain harboring the serine protease domain (SPD). The binding domains of antibodies used in this study are indicated. (D) Recombinant complete heavy chain (heavy) and truncated heavy chain variants ΔNTR, ΔEGF1, ΔEGF2, ΔEGF3, and ΔKringle were expressed in bacteria and analyzed by sodium dodecyl sulfate poly(acrylamide) gel electrophoresis (SDS-PAGE) followed by Coomassie staining. […] Biotinylated NNKC9/41 or the scrambled control peptide was added at 1 μM and peptide binding was measured with peroxidase-linked streptavidin. […]
Wells were coated with anti-FSAP polyclonal antibodies (5 μg/mL). […] Subsequently, the plates were washed, and bound peptides were detected with peroxidase-coupled streptavidin. […]

In the next test the test system is factor XII. Put plainly: Specificity towards pro-enzymes: factor XII. The conditions noted are these: Factor XII 100 nM; peptide 0-50 μM; CS31 (Fig S7). The format is biochemical. How it is done:
Fig S7. Specificity of NNKC9/41 towards other pro-enzymes: Zymogens and their respective active enzymes were incubated with NNKC9/41 or Ser-Ser linear peptide (0-50 μM) and the enzyme activity was monitored using respective chromogenic substrates. Activity of Factor XII(100 nM) and Factor XIIa (20 nM) was measured with the substrate CS31 (1000 µM). Pro-thrombin (100 nM) and thrombin (20 nM) […]
Bend, IN, USA) except plasminogen and FSAP, which were isolated in house; and pro-uPA was from Grünenthal (Stolberg, Germany). All chromogenic substrates were from Hyphen Biomed (Neuville Sur Oise, France). Experiments were carried out in TBS with Tween-20 (0.1 % wt/ vol) BSA (0.3% wt/vol) and CaCl2 (2 mM). Absorbance at 405 nm was measured over time and the enzyme activity is depicted was measured in duplicates (mean + or -range) and similar results were obtained in 3

Test [1] is described as follows: Substrate turnover in FSAP-depleted plasma. It counts as biochemical, human. The conditions noted are these: FSAP-depleted citrate plasma 1:12; 25 μM (Fig 6A). How it is done: (§1) Figure 6 Pro-FSAP activation and clotting in plasma by NNKC9/41: (A) citrate plasma (1:12 dilution) from donors with WT/WT, WT/MI, and MI/MI genotypes and WT-FSAP-deficient plasma (FSAP-DP) were compared. Substrate turnover was monitored after addition of NNKC9/41 or the Ser–Ser linear peptide (25 μM each). Results are shown as mean + range of duplicate wells. (B) Pooled prothrombin-deficient citrated plasma (1:5 dilution) was recalcified with 10 mM CaCl2 and incubated with NNKC9/41 or scrambled control peptide (0–25 μM each) for 60 min at 37 °C in the presence or absence of the FSAP-inhibitory MA-FSAP-38C7 (5 μg/mL). Initiation of clotting was achieved by adding the tissue factor/phospholipid and prothrombin complex concentrate. Clotting time was measured as diluted prothrombin time (dPT) in seconds. Data are the mean of three independent experiments. The relative dPT in % of the untreated control is presented as mean ± standard error (SE) (*p <0.05, two-way analysis of variance (ANOVA) and Bonferroni post-test).
(§2) Human citrate plasma (0.38% w/v) or hirudin plasma (25 μg/mL Lepirudin) was obtained from five healthy donors. […] Hydrolysis of the fluorogenic substrates was measured using a Synergy HI plate reader with excitation at 320 nm and emission at 460 nm at 37 °C for 60 min. The maximal velocity was calculated from the linear part of the progress curve. […]

The next test concerns immobilized pro-FSAP. Nature of the test: Activation of pro-FSAP captured from plasma on anti-FSAP antibody-coated wells. The format is biochemical, human. The following applies: peptide 0–25 μM in solution, duplicate wells (Fig 5A). How it is done: Figure 5 Characteristics of pro-FSAP activation in plasma by NNKC9/41: (A) neutravidin-coated wells were used to capture biotinylated NNKC9/41 or scrambled control peptide (0–25 μM). Hirudin plasma (1:10) was incubated in the wells for 1 h at 37 °C to allow for binding and activation of pro-FSAP. In parallel, wells were coated with rabbit polyclonal anti-FSAP antibody (2 μg/mL) and plasma was added to immobilize FSAP in the presence of solution phase NNKC9/41 or its scrambled control (0–25 μM). Fluorogenic substrate turnover (Ac–Ala–Lys–Nle–Arg–AMC) was monitored. (B) Plasma was incubated with NNKC9/41 and Ser–Ser control (0–50 μM each) in the absence of any antibody or in the presence of MA-FSAP-38C7 or MA-FSAP-32F10 (5 μg/mL) and the FSAP activity was monitored. (C) Plasma was incubated with NNKC9/41 (25 μM) in the presence of MA-FSAP-38C7 or MA-FSAP-32F10 (0–10 μg/mL) and the FSAP activity was monitored. For (A)–(C), results are shown as mean + range of duplicate wells.

Another test concerns pro-FSAP in WT/WT plasma. Nature of the test: Substrate turnover in WT/WT plasma. It counts as biochemical, human. The following applies: WT/WT citrate plasma 1:12; 25 μM (Fig 6A). How it is done: as §1, §2

From publication PMC9486805, “Identification of a Phage Display-Derived Peptide Interacting with the N-Terminal Region of Factor VII Activating Protease (FSAP) Enables Characterization of Zymogen Activation” (ACS Chemical Biology, 2022) come the findings set out here.

Regarding CRGAMWMYKRC [NNKC9/41], the “peptide binding to ΔNTR mutant” value in the test with ΔNTR mutant is reported as “very low binding”. The effect on activity result with factor XII is on record as “did not influence the activity”. Also, the substrate turnover result in test [1] was “no turnover of the substrate”; with pro-FSAP in WT/WT plasma, “high substrate turnover”. Also, in the test with immobilized pro-FSAP, the “activation of captured pro-FSAP” value is “found to activate pro-FSAP”.
